The text below walks through data of article PMC9851200, “Multiparameter phenotypic screening for endogenous TFEB and TFE3 translocation identifies novel chemical series modulating lysosome function” (Autophagy, 2022).

Common to all, as to type: binding
The target in experiment [1] is T1, kinases (KINOMEscan panel) (Homo sapiens, UniProt P51956).
T1 sequence (P51956 1-506): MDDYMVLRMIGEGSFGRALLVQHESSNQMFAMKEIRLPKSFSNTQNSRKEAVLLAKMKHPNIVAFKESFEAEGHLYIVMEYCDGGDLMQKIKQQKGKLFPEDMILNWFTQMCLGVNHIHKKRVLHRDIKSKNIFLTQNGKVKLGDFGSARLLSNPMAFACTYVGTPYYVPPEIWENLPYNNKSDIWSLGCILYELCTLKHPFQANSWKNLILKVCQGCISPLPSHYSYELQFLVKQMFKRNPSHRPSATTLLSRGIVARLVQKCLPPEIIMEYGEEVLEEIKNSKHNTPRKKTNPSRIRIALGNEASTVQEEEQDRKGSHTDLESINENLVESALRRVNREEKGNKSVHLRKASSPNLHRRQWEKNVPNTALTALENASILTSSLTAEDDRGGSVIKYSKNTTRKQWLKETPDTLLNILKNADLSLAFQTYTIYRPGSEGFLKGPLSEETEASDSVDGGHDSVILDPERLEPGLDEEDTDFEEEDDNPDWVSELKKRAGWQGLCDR
To be noted: kinase NEK3; NEW KINOMEscan.

Experiment [2] has as its target T2, kinases (KINOMEscan panel) (Homo sapiens, UniProt Q9C098).
T2 sequence (Q9C098 1-648): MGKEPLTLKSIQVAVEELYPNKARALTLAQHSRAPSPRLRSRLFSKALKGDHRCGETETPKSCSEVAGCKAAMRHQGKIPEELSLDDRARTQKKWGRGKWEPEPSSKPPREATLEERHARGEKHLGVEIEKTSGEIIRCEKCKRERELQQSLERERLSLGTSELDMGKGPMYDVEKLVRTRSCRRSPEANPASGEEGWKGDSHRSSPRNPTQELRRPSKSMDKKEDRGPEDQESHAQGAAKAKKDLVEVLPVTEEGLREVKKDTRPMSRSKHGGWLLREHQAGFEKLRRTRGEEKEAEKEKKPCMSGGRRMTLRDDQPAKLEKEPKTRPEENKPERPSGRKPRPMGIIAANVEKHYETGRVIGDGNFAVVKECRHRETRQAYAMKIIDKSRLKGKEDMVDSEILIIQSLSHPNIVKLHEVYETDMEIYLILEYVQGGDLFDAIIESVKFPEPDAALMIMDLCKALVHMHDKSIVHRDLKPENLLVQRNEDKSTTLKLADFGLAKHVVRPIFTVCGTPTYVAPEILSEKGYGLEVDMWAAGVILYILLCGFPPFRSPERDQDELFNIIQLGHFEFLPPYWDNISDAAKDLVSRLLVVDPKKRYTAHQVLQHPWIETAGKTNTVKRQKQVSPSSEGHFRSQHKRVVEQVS
To be noted: kinase DCLK3; NEW KINOMEscan.

In experiment [3] the target is T3, kinases (KINOMEscan panel) (Homo sapiens, UniProt Q15835).
T3 sequence (Q15835 1-563): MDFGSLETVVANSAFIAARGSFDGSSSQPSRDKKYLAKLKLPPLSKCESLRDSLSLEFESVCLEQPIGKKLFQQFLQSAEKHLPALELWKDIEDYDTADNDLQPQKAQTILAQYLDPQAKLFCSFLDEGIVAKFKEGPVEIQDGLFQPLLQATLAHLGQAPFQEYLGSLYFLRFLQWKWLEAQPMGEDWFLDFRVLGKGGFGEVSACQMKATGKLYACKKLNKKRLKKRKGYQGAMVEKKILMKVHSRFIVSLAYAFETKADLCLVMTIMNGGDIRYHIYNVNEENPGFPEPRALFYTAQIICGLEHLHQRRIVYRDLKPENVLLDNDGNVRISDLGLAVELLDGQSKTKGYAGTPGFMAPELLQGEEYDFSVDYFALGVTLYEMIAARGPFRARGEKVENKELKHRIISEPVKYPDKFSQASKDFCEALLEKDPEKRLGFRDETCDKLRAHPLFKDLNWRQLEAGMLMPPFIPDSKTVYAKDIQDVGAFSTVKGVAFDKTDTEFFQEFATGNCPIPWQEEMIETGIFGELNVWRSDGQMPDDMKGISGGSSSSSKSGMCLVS
To be noted: NEW KINOMEscan.

Experiment [4] deals with kinases (KINOMEscan panel) (Homo sapiens, UniProt Q13705). To be noted: kinase ACVR2B; NEW KINOMEscan.
Experiment [5] addresses kinases (KINOMEscan panel) (Homo sapiens, UniProt Q13464). To be noted: ROCK1; NEW KINOMEscan.
In experiment [6] the target is T4, kinases (KINOMEscan panel) (Homo sapiens, UniProt Q9UF33).
T4 sequence (Q9UF33 23-1036): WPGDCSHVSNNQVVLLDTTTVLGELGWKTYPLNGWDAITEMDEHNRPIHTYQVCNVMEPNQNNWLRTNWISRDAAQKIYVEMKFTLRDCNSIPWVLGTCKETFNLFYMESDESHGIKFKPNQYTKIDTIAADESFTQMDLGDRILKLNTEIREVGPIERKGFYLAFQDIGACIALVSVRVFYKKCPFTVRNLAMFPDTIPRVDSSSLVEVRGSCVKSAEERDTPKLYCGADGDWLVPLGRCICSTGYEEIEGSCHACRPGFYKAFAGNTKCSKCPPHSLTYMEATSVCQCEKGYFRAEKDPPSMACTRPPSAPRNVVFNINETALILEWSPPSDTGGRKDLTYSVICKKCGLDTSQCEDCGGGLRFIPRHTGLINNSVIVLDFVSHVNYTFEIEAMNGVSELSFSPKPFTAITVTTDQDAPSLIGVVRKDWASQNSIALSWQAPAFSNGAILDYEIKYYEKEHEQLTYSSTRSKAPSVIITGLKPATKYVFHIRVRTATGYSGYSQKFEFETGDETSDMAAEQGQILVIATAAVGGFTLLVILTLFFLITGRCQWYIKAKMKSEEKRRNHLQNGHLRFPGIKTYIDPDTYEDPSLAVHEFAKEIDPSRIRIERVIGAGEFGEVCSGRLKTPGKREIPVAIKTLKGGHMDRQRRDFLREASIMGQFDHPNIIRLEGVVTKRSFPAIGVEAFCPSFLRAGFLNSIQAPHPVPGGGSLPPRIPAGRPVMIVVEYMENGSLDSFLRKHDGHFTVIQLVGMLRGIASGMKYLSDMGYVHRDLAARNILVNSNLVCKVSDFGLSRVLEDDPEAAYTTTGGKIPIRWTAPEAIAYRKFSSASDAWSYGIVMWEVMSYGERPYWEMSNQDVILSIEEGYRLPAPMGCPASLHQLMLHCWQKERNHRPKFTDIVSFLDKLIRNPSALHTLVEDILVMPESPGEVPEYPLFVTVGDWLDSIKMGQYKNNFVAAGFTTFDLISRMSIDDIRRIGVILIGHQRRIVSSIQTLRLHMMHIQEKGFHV
To be noted: kinase EPHA6; NEW KINOMEscan.

Chain of kinases (KINOMEscan panel) (Homo sapiens, UniProt Q13705) (Q13705 19-512): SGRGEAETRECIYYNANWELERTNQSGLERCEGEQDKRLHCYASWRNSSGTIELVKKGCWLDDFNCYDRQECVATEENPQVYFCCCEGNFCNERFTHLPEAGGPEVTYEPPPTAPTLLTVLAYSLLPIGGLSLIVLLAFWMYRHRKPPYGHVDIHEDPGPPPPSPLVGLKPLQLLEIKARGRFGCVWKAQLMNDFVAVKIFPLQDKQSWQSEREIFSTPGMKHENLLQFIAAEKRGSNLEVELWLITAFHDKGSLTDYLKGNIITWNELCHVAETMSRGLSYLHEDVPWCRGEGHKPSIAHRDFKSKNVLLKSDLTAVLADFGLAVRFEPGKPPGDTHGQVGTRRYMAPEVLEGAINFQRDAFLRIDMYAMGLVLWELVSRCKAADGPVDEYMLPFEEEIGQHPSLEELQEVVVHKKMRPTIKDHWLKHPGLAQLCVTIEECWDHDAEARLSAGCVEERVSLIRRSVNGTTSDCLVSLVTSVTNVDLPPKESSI
Chain of kinases (KINOMEscan panel) (Homo sapiens, UniProt Q13464) (Q13464 whole entry): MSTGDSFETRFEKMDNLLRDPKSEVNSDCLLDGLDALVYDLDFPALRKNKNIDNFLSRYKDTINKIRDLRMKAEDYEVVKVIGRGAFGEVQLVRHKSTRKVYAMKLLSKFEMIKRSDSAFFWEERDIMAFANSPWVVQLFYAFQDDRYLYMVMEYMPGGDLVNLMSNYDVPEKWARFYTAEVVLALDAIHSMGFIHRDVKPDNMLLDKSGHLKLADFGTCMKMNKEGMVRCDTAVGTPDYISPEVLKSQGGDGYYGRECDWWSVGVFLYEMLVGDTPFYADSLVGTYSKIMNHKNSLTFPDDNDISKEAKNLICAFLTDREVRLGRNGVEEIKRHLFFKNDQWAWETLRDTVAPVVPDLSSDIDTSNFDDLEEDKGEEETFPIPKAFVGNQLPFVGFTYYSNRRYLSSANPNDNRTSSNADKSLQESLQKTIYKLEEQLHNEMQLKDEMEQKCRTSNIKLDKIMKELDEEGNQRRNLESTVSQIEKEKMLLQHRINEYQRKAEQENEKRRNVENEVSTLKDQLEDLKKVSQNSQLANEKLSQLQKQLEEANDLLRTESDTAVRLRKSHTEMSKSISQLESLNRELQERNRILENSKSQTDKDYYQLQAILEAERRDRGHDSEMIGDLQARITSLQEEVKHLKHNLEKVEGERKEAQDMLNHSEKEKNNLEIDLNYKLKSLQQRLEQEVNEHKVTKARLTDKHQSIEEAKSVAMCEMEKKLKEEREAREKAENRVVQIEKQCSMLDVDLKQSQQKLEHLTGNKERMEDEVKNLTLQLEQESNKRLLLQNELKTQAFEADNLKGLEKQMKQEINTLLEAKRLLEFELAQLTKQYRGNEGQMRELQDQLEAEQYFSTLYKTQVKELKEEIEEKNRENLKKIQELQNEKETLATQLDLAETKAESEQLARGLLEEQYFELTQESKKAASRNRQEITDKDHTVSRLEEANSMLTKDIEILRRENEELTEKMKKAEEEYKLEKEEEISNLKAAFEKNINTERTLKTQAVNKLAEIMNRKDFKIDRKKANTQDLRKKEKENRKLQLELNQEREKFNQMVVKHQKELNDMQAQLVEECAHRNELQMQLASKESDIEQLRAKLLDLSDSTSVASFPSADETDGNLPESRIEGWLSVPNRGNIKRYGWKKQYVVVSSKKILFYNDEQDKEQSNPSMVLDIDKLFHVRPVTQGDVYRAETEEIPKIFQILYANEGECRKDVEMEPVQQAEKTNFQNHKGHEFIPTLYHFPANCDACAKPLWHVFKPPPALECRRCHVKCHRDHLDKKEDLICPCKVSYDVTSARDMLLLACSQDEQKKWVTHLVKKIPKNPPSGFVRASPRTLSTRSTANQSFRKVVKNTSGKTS

Turning to `Cc1cccc(-c2nc(N(C)c3ccc4ncsc4c3)c3ccccc3n2)n1` [NK-161], in experiment [1], the “KINOMEscan NEK3” value was found to be 33. Besides, the “KINOMEscan DCLK3” value in experiment [2] is listed as 14. Moreover, the “KINOMEscan GRK1” value in experiment [3] worked out at 25. Further, the “KINOMEscan ACVR2B” value in experiment [4] is given as 22. For the same molecule, the “KINOMEscan ROCK1” value in experiment [5] is 12. Besides, in experiment [6], the “KINOMEscan EPHA6” value was 5.

In the case of `Cc1cccc(-c2nc(Nc3ccc4nn(C)cc4c3)c3ccccc3n2)n1` [NK167], the “KINOMEscan NEK3” value in experiment [1] was determined as 46. Also, the “KINOMEscan DCLK3” value in experiment [2] is 10. Besides, the “KINOMEscan GRK1” value in experiment [3] is 37. Moreover, in experiment [4], the “KINOMEscan ACVR2B” value came out at 0. Further, the “KINOMEscan ROCK1” value in experiment [5] stood at 0. Also, the “KINOMEscan EPHA6” value in experiment [6] is given as 0.
